Values quoted from earlier work in PubChem BioAssay AID1259409 (Chemical Carcinogenesis Research Information System (CCRIS), 2018).

Test system: rodent chemically induced tumor inhibition, incidence and multiplicity
Assay: CCRIS tumor inhibitor studies
Conditions: Species: RAT

## O=C(O)O
Carcinogen: AZOXYMETHANE, 25843-45-2, Dose [Inhibitor]: 0, 2% IN DIET FOR 13 WK BEGINNING 36 WK POST LAST CARCINOGEN DOSE (STUDY DURATION: 49 WK), Route [Inhibitor]: ORAL, Strain/Sex: F344/MALE, Target Tissue: Type of Lesion: COLON: ADENOCARCINOMA, Dose [Carcinogen]: 12 MG/KG BW IN 0.9% SALINE TWICE, Promoter: CHOLIC ACID, 81-25-4
  tumour outcome (control, treated, inhibition, significance): 26%, 31%, -19%, not significant
Carcinogen: AZOXYMETHANE, 25843-45-2, Dose [Inhibitor]: 0, 2% IN DIET FOR 13 WK BEGINNING 36 WK POST LAST CARCINOGEN DOSE (STUDY DURATION: 49 WK), Route [Inhibitor]: ORAL, Strain/Sex: F344/MALE, Target Tissue: Type of Lesion: COLON: ADENOMA, Dose [Carcinogen]: 12 MG/KG BW IN 0.9% SALINE TWICE, Promoter: CHOLIC ACID, 81-25-4
  tumour outcome (control, treated, inhibition, significance): 81%, 89%, -10%, not significant
Carcinogen: AZOXYMETHANE, 25843-45-2, Dose [Inhibitor]: 0, 2% IN DIET FOR 13 WK BEGINNING 36 WK POST LAST CARCINOGEN DOSE (STUDY DURATION: 49 WK), Route [Inhibitor]: ORAL, Strain/Sex: F344/MALE, Target Tissue: Type of Lesion: SMALL INTESTINE: ADENOCARCINOMA, Dose [Carcinogen]: 12 MG/KG BW IN 0.9% SALINE TWICE, Promoter: CHOLIC ACID, 81-25-4
  tumour outcome (control, treated, inhibition, significance): 23%, 14%, 39%, not significant
Carcinogen: AZOXYMETHANE, 25843-45-2, Dose [Inhibitor]: 0, 2% IN DIET FOR 13 WK BEGINNING 36 WK POST LAST CARCINOGEN DOSE (STUDY DURATION: 49 WK), Route [Inhibitor]: ORAL, Strain/Sex: F344/MALE, Target Tissue: Type of Lesion: SMALL INTESTINE: ADENOMA, Dose [Carcinogen]: 12 MG/KG BW IN 0.9% SALINE TWICE, Promoter: CHOLIC ACID, 81-25-4
  tumour outcome (control, treated, inhibition, significance): 17%, 14%, 18%, not significant
Carcinogen: AZOXYMETHANE, 25843-45-2, Dose [Inhibitor]: 0, 2% IN DIET FOR 34 WK BEGINNING 1 WK POST LAST CARCINOGEN DOSE (STUDY DURATION: 49 WK), Route [Inhibitor]: ORAL, Strain/Sex: F344/MALE, Target Tissue: Type of Lesion: COLON: ADENOCARCINOMA, Dose [Carcinogen]: 12 MG/KG BW IN 0.9% SALINE TWICE, Promoter: CHOLIC ACID, 81-25-4
  tumour outcome (control, treated, inhibition, significance): 26%, 18%, 31%, not significant
Carcinogen: AZOXYMETHANE, 25843-45-2, Dose [Inhibitor]: 0, 2% IN DIET FOR 34 WK BEGINNING 1 WK POST LAST CARCINOGEN DOSE (STUDY DURATION: 49 WK), Route [Inhibitor]: ORAL, Strain/Sex: F344/MALE, Target Tissue: Type of Lesion: COLON: ADENOMA, Dose [Carcinogen]: 12 MG/KG BW IN 0.9% SALINE TWICE, Promoter: CHOLIC ACID, 81-25-4
  tumour outcome (control, treated, inhibition, significance): 81%, 59%, 27%, p<0.05
Carcinogen: AZOXYMETHANE, 25843-45-2, Dose [Inhibitor]: 0, 2% IN DIET FOR 34 WK BEGINNING 1 WK POST LAST CARCINOGEN DOSE (STUDY DURATION: 49 WK), Route [Inhibitor]: ORAL, Strain/Sex: F344/MALE, Target Tissue: Type of Lesion: SMALL INTESTINE: ADENOCARCINOMA, Dose [Carcinogen]: 12 MG/KG BW IN 0.9% SALINE TWICE, Promoter: CHOLIC ACID, 81-25-4
  tumour outcome (control, treated, inhibition, significance): 23%, 16%, 30%, not significant
Carcinogen: AZOXYMETHANE, 25843-45-2, Dose [Inhibitor]: 0, 2% IN DIET FOR 34 WK BEGINNING 1 WK POST LAST CARCINOGEN DOSE (STUDY DURATION: 49 WK), Route [Inhibitor]: ORAL, Strain/Sex: F344/MALE, Target Tissue: Type of Lesion: SMALL INTESTINE: ADENOMA, Dose [Carcinogen]: 12 MG/KG BW IN 0.9% SALINE TWICE, Promoter: CHOLIC ACID, 81-25-4
  tumour outcome (control, treated, inhibition, significance): 17%, 7%, 59%, not significant
Carcinogen: N-BUTYL-N-(4-HYDROXYBUTYL)NITROSAMINE, 3817-11-6, Dose [Inhibitor]: 5% DIET DAILY FOR 34 WK STARTING AFTER CARCINOGEN TREATMENT (STUDY DURATION: 38 WK), Route [Inhibitor]: ORAL, Strain/Sex: F344/MALE, Target Tissue: Type of Lesion: URINARY BLADDER: PAPILLOMA, Dose [Carcinogen]: 0.01% IN DRINKING WATER FOR 4 WK, Promoter: NONE USED
  tumour outcome (control, treated, inhibition, significance): 33%, 37%, -12%, not significant
Carcinogen: N-METHYL-N'-NITRO-N-NITROSOGUANIDINE, 70-25-7, Dose [Inhibitor]: 0, 7.5% IN DIET FOR FIRST 20 WK THEN BASAL DIET FOR DURATION OF STUDY (STUDY DURATION: 40 WK), Route [Inhibitor]: ORAL, Strain/Sex: WISTAR/MALE, Target Tissue: Type of Lesion: GLANDULAR STOMACH: ADENOCARCINOMA, Dose [Carcinogen]: 100 MG/L IN DRINKING WATER FOR FIRST 20 WK, Promoter: NONE USED
  tumour outcome (control, treated, inhibition, significance): 3/20 (15%), 3/19 (16%), -7%, not significant
Carcinogen: N-NITROSOMETHYLBENZYLAMINE, 937-40-6, Dose [Inhibitor]: 0, 20000 PPM IN DIET FOR DURATION OF STUDY BEGINNING 1 WK POST CARCINOGEN TREATMENT (STUDY DURATION: 25 WK), Route [Inhibitor]: ORAL, Strain/Sex: F344/MALE, Target Tissue: Type of Lesion: ESOPHAGUS: TUMOR, Dose [Carcinogen]: 1 MG/KG 3/WK FOR 5 WK, Promoter: NONE USED
  tumour outcome (control, treated, inhibition, significance): 15/15 (100%), 14/15 (93%), 7%, not significant
Carcinogen: N-NITROSOMETHYLBENZYLAMINE, 937-40-6, Dose [Inhibitor]: 0, 20000 PPM IN DIET FOR DURATION OF STUDY BEGINNING 2 WK PRIOR TO CARCINOGEN TREATMENT (STUDY DURATION: 25 WK), Route [Inhibitor]: ORAL, Strain/Sex: F344/MALE, Target Tissue: Type of Lesion: ESOPHAGUS: TUMOR, Dose [Carcinogen]: 1 MG/KG 3/WK FOR 5 WK, Promoter: NONE USED
  tumour outcome (control, treated, inhibition, significance): 15/15 (100%), 13/15 (87%), 13%, not significant
Dose [Inhibitor]: 0, 6.2 MG, 2 INJECTIONS ONCE INTO EACH POLE OF RIGHT KIDNEY ADMINISTERED WITH CARCINOGEN (STUDY DURATION: 109 WK), Route [Inhibitor]: INTRARENAL, Strain/Sex: F344/NCR/MALE, Target Tissue: Type of Lesion: KIDNEY: TUMOR, Dose [Carcinogen]: 5 MG, 2 INJECTIONS ONCE INTO EACH POLE OF RIGHT KIDNEY, Promoter: NONE USED
  tumour outcome (control, treated, inhibition, significance): 25/40 (63%), 4/20 (20%), 68%, not calculated
Dose [Inhibitor]: 0, 7.5 UMOL (MG) INJECTED WITH CARCINOGEN INTO THIGH OF BOTH HIND LIMBS (STUDY DURATION: 79 WK), Route [Inhibitor]: INTRAMUSCULAR, Strain/Sex: F344/MALE, Target Tissue: Type of Lesion: INJECTION SITE: SARCOMA, Dose [Carcinogen]: 2.5 MG PER SITE INJECTED INTO THIGH OF BOTH HIND LIMBS ONCE, Promoter: NONE USED
  tumour outcome (control, treated, inhibition, significance): 100%, 100%, 0%, not significant
Dose [Inhibitor]: 0, 15.5 UMOL (MG) INJECTED WITH CARCINOGEN INTO THIGH OF BOTH HIND LIMBS (STUDY DURATION: 79 WK), Route [Inhibitor]: INTRAMUSCULAR, Strain/Sex: F344/MALE, Target Tissue: Type of Lesion: INJECTION SITE: SARCOMA, Dose [Carcinogen]: 2.5 MG PER SITE INJECTED INTO THIGH OF BOTH HIND LIMBS ONCE, Promoter: NONE USED
  tumour outcome (control, treated, inhibition, significance): 100%, 95%, 5%, not significant
Dose [Inhibitor]: 0, 30 UMOL (MG) INJECTED WITH CARCINOGEN INTO THIGH OF BOTH HIND LIMBS (STUDY DURATION: 79 WK), Route [Inhibitor]: INTRAMUSCULAR, Strain/Sex: F344/MALE, Target Tissue: Type of Lesion: INJECTION SITE: SARCOMA, Dose [Carcinogen]: 2.5 MG PER SITE INJECTED INTO THIGH OF BOTH HIND LIMBS ONCE, Promoter: NONE USED
  tumour outcome (control, treated, inhibition, significance): 100%, 55%, 45%, not calculated
Dose [Inhibitor]: 0, 60 UMOL (MG) INJECTED WITH CARCINOGEN INTO THIGH OF BOTH HIND LIMBS (STUDY DURATION: 79 WK), Route [Inhibitor]: INTRAMUSCULAR, Strain/Sex: F344/MALE, Target Tissue: Type of Lesion: INJECTION SITE: SARCOMA, Dose [Carcinogen]: 2.5 MG PER SITE INJECTED INTO THIGH OF BOTH HIND LIMBS ONCE, Promoter: NONE USED
  tumour outcome (control, treated, inhibition, significance): 100%, 60%, 40%, not significant
Dose [Inhibitor]: 0, 120 UMOL (MG) INJECTED INTO NAPE OF NECK (STUDY DURATION: 79 WK), Route [Inhibitor]: SUBCUTANEOUS, Strain/Sex: F344/MALE, Target Tissue: Type of Lesion: INJECTION SITE: SARCOMA, Dose [Carcinogen]: 2.5 MG PER SITE INJECTED INTO THIGH OF BOTH HIND LIMBS, Promoter: NONE USED
  tumour outcome (control, treated, inhibition, significance): 100%, 100%, 0%, not significant
Dose [Inhibitor]: 0, 120 UMOL (MG) INJECTED WITH CARCINOGEN INTO THIGH OF BOTH HIND LIMBS (STUDY DURATION: 79 WK), Route [Inhibitor]: INTRAMUSCULAR, Strain/Sex: F344/MALE, Target Tissue: Type of Lesion: INJECTION SITE: SARCOMA, Dose [Carcinogen]: 2.5 MG PER SITE INJECTED INTO THIGH OF BOTH HIND LIMBS, Promoter: NONE USED
  tumour outcome (control, treated, inhibition, significance): 100%, 55%, 45%, not calculated
